Consider 2 molecules from patent publication US20210068388A1, “A MULTIPURPOSE POTENTIATOR COMPOSITION AND THE METHODS THEREOF” (priority 2017, published 2021).

In data set [1] the test system is African green monkey kidney cells (Vero cells).
Description: (§1) In-vitro cytotoxicity of the composition of was carried out on African green monkey kidney cells (Vero cells).
Data set [2] shares this test system. Description: In-vitro cytotoxicity on Vero cells.
Description: as §1

Where two headings read alike, the source gives them in different places.

On to `[Na+].[OH-]` [Control-II, Sodium hydroxide], for which, in data set [1], the “Non-toxic level (%)” value is given as 0.06% and the toxic level was 0.06%.

In data set [2], `[Cl-].[Na+]` [Control-I, Sodium chloride] had a toxic level of 0.50%. The “Non-toxic level (%)” value in data set [2] (up to total amount of the composition) amounted to 0.50%.
